Data set [1] relates to Aggregatibacter actinomycetemcomitans. Particulars: general statement, no test described; cited from earlier work.
Data set [2] concerns oral malodor and periodontal disease. The data set can be described thus: Clinical study of antibiotic antifungal rinse in patients with halitosis.
Protocol: (§1) Tongue base, tongue dorsum, and proximal areas of the dentition were evaluated for odors. Biofilm samples from these areas were taken from each patient. A Gram stain analysis provided morphological information on the microorganisms present in the oral cavity. In addition, the microbiology of the teeth and tongue was tested with a BANA strip for red complex clusters. Six-point periodontal probing was used to assess pocket depth and bleeding points.
(§2) Treatment initially consisted of rinsing with chlorhexidine 0.2% for 2 weeks, twice daily.
(§3) The treatment chosen was the metronidazole-nystatin rinse prepared as described in Example 3. Three times a day, patients dispensed a “capful” (2 ml) of this mixture, swished and gargled for 30 seconds, and expectorated the contents. Once per day, they flossed immediately after rinsing. After each rinse with antibiotic mixture, patients were to abstain from eating or drinking for 30 minutes. After 2 weeks of rinsing, patients returned to the clinic for an evaluation of treatment. Breath odor measurements and periodontal measurements were repeated, and compared with those taken at the initial appointment. Microbiology samples of the tongue base, tongue dorsum, and teeth were taken, analyzed, and compared with the pre-treatment samples. Patients were then placed on chlorhexidine 0.2% for 2 more weeks, followed by routine rinsing with non-prescription mouthwashes that the patient selected.
The nature of data set [3]: Solubility in water. The format is physicochemical. The protocol: A metronidazole-nystatin mixture was prepared for use as an oral rinse to treat halitosis, gingivitis, tonsillitis, and/or mild to moderate periodontal disease. Tablets of metronidazole (APO-Metronidazole™, Apotex Corp.) were crushed and grounded, the larger particles filtered out, and the fine particles mixed with nystatin suspension or nystatin powder (Nilstat™, Alimed or PMS PharmaScience) in distilled water.

The subject of data set [4] is oral malodor and periodontal disease. Particulars: human, in vivo.
Protocol: as §1, §2, §3

Like-named read-outs stand apart in the source and are kept apart here.

For `CC1(C)S[C@@H]2[C@H](NC(=O)[C@H](N)c3ccc(O)cc3)C(=O)N2[C@H]1C(=O)O` [amoxicillin], in data set [1], the “response of Aggregatibacter actinomycetemcomitans” value is given as “responds best”. Consider `[H]/N=C(\N/C(=N/[H])NCCCCCCNC(=N)NC(=N)Nc1ccc(Cl)cc1)Nc1ccc(Cl)cc1` [chlorhexidine], for which the “reduction of oral malodor” value in data set [2] (chlorhexidine 0.2% rinse alone, 2 weeks, twice daily) is “insufficient to completely reduce oral malodor”.

For `CCC[C@@H]1C[C@@H](C(=O)N[C@@H]([C@H]2O[C@H](SC)[C@H](O)[C@@H](O)[C@H]2O)[C@H](C)Cl)N(C)C1` [clindamycin], the side effects entry in data set [2] (systemic metronidazole and clindamycin, followed by 0.2% chlorhexidine) is given as “systemic side effects”. For `Cc1ncc([N+](=O)[O-])n1CCO` [metronidazole], in data set [3], the solubility in water result is given as “sparingly soluble or practically insoluble”. Further, the side effects entry in data set [4] was “systemic side effects”. The “Aggregatibacter actinomycetemcomitans responds (share of the time)” value in data set [1] was “about 50 % of the time”. As to `C[C@@H]1[C@H](O)[C@@H](C)/C=C/C=C/CC/C=C/C=C/C=C/C=C/C(O[C@H]2O[C@H](C)[C@@H](O)[C@H](N)[C@@H]2O)CC2O[C@](O)(CC(O)C(O)CCC(O)CC(O)CC(O)CC(=O)O[C@H]1C)CC(O)C2C(=O)O` (stereo partly shown) [nystatin], in data set [3] (water, form a suspension or dispersion), the solubility in water entry is “sparingly soluble or practically insoluble”.
